Results on 1 compound are retold here after patent US20220260557A1, “METHODS FOR DEPLETION AND ENRICHMENT” (priority 2018, published 2022).

Each structure is given as a SMILES string. Several values for one entry are separate records, joined by “and”; a condition that tells them apart may be missing. Equal entries are not always repeated.

Data set [1] can be described thus: Serum biotin levels after 20 mg biotin ingestion, free biotin ELISA. Conditions: per volunteer. The procedure: Baseline serum samples were obtained from 5 apparently healthy adult volunteers (4 male, 1 female) by antecubital venous blood draw in BD brand Vacutainer™ 10 mL red top tubes. […] Blood was allowed to clot for 1 hour at RT and centrifuged at 2,000 rpm for 15 min in a Beckman Allegra 6R tabletop centrifuge. For each time point, serum samples from each volunteer was pooled, mixed for 15 min at RT, aliquoted into 1.2 mL aliquots in 2 mL cryo-vials, and frozen at −80° C.
Samples above the kit's measuring range were diluted with the kit's sample dilution buffer.
A general note: In an ELISA, binding on a coated surface is turned into a signal by an enzyme label.

The next data set can be described thus: clinical. Conditions: human, in vivo, serum biotin level, LC-MS/MS.

`O=C(O)CCCC[C@@H]1SC[C@@H]2NC(=O)N[C@@H]21` [Biotin]: the “Biotin Concentration 1-hr” value in data set [1] (1 hr after 20 mg biotin ingestion) was 440 ng/mL. Also, in data set [1] (3 hr after 20 mg biotin ingestion), the “Biotin Concentration 3-hr” value is 221 ng/mL and 289 ng/mL and 184 ng/mL and 113 ng/mL and 183 ng/mL. Moreover, the “Biotin Concentration 6-hr” value in data set [1] (6 hr after 20 mg biotin ingestion) is 60 ng/mL and 65 ng/mL and 76 ng/mL. For the same compound, in data set [1] (8 hr after 20 mg biotin ingestion), the “Biotin Concentration 8-hr” value is 48 ng/mL and 64 ng/mL and 65 ng/mL. For the same compound, the “Biotin Concentration 24-hr” value in data set [1] (24 hr after 20 mg biotin ingestion) is 29 ng/mL and 26 ng/mL and 32 ng/mL and 24 ng/mL. Besides, in data set [1] (baseline before 20 mg biotin ingestion), the “Biotin Concentration 0-hr” value is 1.1 ng/mL and 0.1 ng/mL and 0.3 ng/mL and 0.4 ng/mL (2×). The compound also gave a concentration at 1 h in data set [1] (both, human, in vivo, 20 mg, Biotin Concentration 1-hr, 1 hr after 20 mg biotin ingestion) of 531 ng/mL. The concentration at 6 h was 107 ng/mL in data set [1] (both, human, in vivo, 20 mg, Biotin Concentration 6-hr, 6 hr after 20 mg biotin ingestion); 17 to 35 ng/mL in the data set “clinical” (20 mg, all 5 volunteers); 95 to 347 ng/mL in the data set “clinical” (200 mg, 200 mg dose (so in the source)). For the same compound, the concentration at 8 h in data set [1] (both, human, in vivo, 20 mg, Biotin Concentration 8-hr, 8 hr after 20 mg biotin ingestion) lay in the range of 60 to 107 ng/mL; in the data set “clinical” (20 mg, 8 hours, 4 out of 5 volunteers >15 ng/mL), 16 to 28 ng/mL. The compound further registered a concentration at 24 h in data set [1] (both, human, in vivo, 20 mg, Biotin Concentration 24-hr, 24 hr after 20 mg biotin ingestion) of 24 to 32 ng/mL.
